Experimental data as given in patent US20040048318A1, “Method for screening anti-proliferative compounds and method for inhibiting tumor growth” (priority 2003, published 2004).

How the values were obtained:
methionine 14-3-3γ [1] = experiment: IEF-immunoblotting for induction of methionine 14-3-3γ in H1299 cells; type: cell-based, human
Experimental: (§1) H1299, a non-small cell lung carcinoma which is obtained from the American Type Culture Collection (Rockville, Md.), is cultivated in PRMI1640 supplemented with 10% fetal calf serum and glutamine, penicillin, streptomycin, and gentamycin. The H1299 cells are grown to about 70% confluenc and then cultivated with or without 25 μM bengamide. Samples of the cells are taken at 8, 16, 24 and 48 hours. At the end of the culture periods, the sample cells are washed with PBS (phosphate buffered solution, available from Sigma Chemical) and collected by scraping and centrifugation. The cell pellet is dissolved in 4 volumes of Rabilloud buffer. Rabilloud buffer contained 4% non-ionic detergent CHAPS, 7 M urea, 2 M thiourea, 10 mg/ml dithiothreitol and 1% pharmalytes (pH 3-10), which buffer is disclosed in Electrophoresis, 1997 Mar-Apr., 18 (3-4): 307-16, Rabilloud et al., Improvement of the Solubilization of Proteins in Two-dimensional electrophoresis with immobilized pH Gradients. The cell concentration was between 2 and 2.5 E7/ml.
(§2) Immobilized pH-gradient (IPG) gels (Immobiline®, Amersham Pharmacia Biotech) are re-swollen for at least 4 hours in Rabilloud buffer without pharmalytes. Samples (1 μl of cell extract) are directly loaded at a distance of about 2 cm from the anode to the surface of the gel using a comb. Focusing is carried out at 200 V for 2 hours and at 1000 or 3500 V until a 25000 Vh is reached. The temperature is maintained at 15° C. After focusing, the gel is fixed in 12% TCA-3.5% sulfosalicylic acid for 1 hour and washed in water for 1 hour. The washed gel is blotted by placing the gel on a flat surface and covering with a sheet of PVDF-membrane which was sequentially soaked in Isopropanol, water and a guanidinium chloride solution of […] Tris-HCl at pH 7.5, 4 M guanidinium chloride, 1 mg/ml DTT. The membrane is covered with 4 layers of filter paper sheets which was soaked with the guanidinium chloride solution. A polyethylene film is placed over the filter sheets and a 3 kg weight having a 14 cm by 14 cm flat surface is placed over the polyethylene film to ensure a good contact between the layers. The gel layers are undisturbed to allow transfer for overnight, then the membrane is washed with water and treated with a solution of 0.5% formaldehyde in PBS for 30 minutes. The membrane is incubated with 2% glycine in PBS at pH 7 for 30 minutes.
The membrane is then blocked with 0.05% Tween 20-1% skimmed dry milk powder in PBS for 1 hour. Commercially available antibodies against 14-3-3 (Santa Cruz) are applied for 4 hours in blocking buffer. Chemiluminescence detection (ECL-kit, Amersham Pharmacia Biotech) is carried out using the secondary antibodies supplied with the kit.

methionine 14-3-3γ [2] = experiment: IEF-immunoblotting for induction of methionine 14-3-3γ in MDA-MB435 (mammary carcinoma) cells; type: cell-based, human; details: 200 nM LAF389, within 18 hours
Experimental: [The procedure below names another cell line; the source says it served here with some conditions changed.] as §1
(§3) Immobilized pH-gradient (IPG) gels (Immobiline®, Amersham Pharmacia Biotech) are re-swollen for at least 4 hours in Rabilloud buffer without pharmalytes. Samples (1 μl of cell extract) are directly loaded at a distance of about 2 cm from the anode to the surface of the gel using a comb. […]

methionine 14-3-3γ [3] = experiment: IEF-immunoblotting of white blood cell fraction from treated rats for methionine 14-3-3γ; type: in vivo; details: 3 mg/kg three times for a day, rested 7 days, dosed three times again, blood collected after one day rest
Experimental: One group of laboratory rats is treated with the bengamide analogue LAF389 of Example 2 three times for a day at the 3 mg/kg dosage, then rested for 7 days. Th rats are again dosed three times the following day with the dosage. They are rested for one day and blood samples are collected. Peripheral blood is collected by a percoll gradient centrifugation protocol. The white blood cell fraction including platelets is recovered and the pellet is lysed in IEF sample buffer. The bio-samples are analyzed with the IEF-immunoblotting analysis. Control bio-samples are obtained from a group of rats that are not treated with the bengamide analogue.

methionine 14-3-3γ [4] = experiment: IEF-immunoblotting for induction of methionine 14-3-3γ in U20S (osteosarcoma) cells; type: cell-based, human; details: for expression of the altered 14-3-3γ isoform: U20S cells treated with the compound (summary statement, no concentration given)
Experimental: [The procedure below names another cell line; the source says it served here with some conditions changed.] as §1
as §2, with “A polyethylene film is placed over the filter sheets and a 3 kg weight having a 14 cm by 14 cm flat surface is placed over the polyethylene film to ensure a good contact between the layers. The gel layers are undisturbed to allow transfer for overnight, then the membrane is washed with water and treated with a solution of 0.5% formaldehyde in PBS for 30 minutes. The membrane is incubated with 2% glycine in PBS at pH 7 for 30 minutes.” left out

methionine 14-3-3γ [5] = experiment: IEF-immunoblotting for induction of methionine 14-3-3γ in A549 (lung carcinoma) cells; type: cell-based, human; details: 200 nM LAF389, within 18 hours
Experimental: [The procedure below names another cell line; the source says it served here with some conditions changed.] as §1, §3

With `CO[C@@H]1[C@H](OC(=O)NC(=O)CCl)CC[C@]2(CO2)[C@H]1[C@@]1(C)O[C@@H]1CC=C(C)C` [AGM-1470] the “induction of methionine 14-3-3γ (IEF-immunoblotting)” value (“induction of methionine 14-3-3γ” for short) (methionine 14-3-3γ [1]; AGM-1470 in place of bengamide) was “induce methionine 14-3-3γ”.

`COC(C(=O)NC1CCC(OC(=O)C2CCCCC2)CNC1=O)C(O)C(O)C(O)/C=C/C(C)(C)C` (stereo not shown) [LAF389] was tested, and the “induction/accumulation of methionine 14-3-3γ (IEF-immunoblotting)” value (methionine 14-3-3γ [1]; 200 nM LAF389, samples at 8, 16, 24 and 48 hours) was “induce and accumulate the protein which is reactive to the 14-3-3γ antibody”, the “induction of methionine 14-3-3γ” value (methionine 14-3-3γ [1]; 18 hours, LAF389 200 nM, 5-fluorouracil 20 μg/ml, epothilone 500 nM, doxorubicin 1 μg/ml, stauosporin 1 μM) was “induced methionine 14-3-3γ” and the “induction of methionine 14-3-3γ” value (methionine 14-3-3γ [2]) was “induce methionine 14-3-3γ within 18 hours”. For the same compound, the “induction and accumulation of methionine 14-3-3γ in white blood cell fraction” value (methionine 14-3-3γ [3]) was “induce and accumulate methionine 14-3-3γ”, the “induction of methionine 14-3-3γ” value (methionine 14-3-3γ [4]; U20S cells, 200 nM LAF389, within 18 hours) was “induce methionine 14-3-3γ within 18 hours” and the “induction of methionine 14-3-3γ” value (methionine 14-3-3γ [5]) was “induce methionine 14-3-3γ within 18 hours”.

With `CO[C@@H]1[C@H](OC(=O)/C=C/C=C/C=C/C=C/C(=O)O)CC[C@]2(CO2)[C@H]1[C@@]1(C)O[C@@H]1CC=C(C)C` [fumagillin] the “expression of the altered 14-3-3γ isoform” value (methionine 14-3-3γ [4]) was “express the altered 14-3-3γ isoform”.

bengamide was tested, and the “induction/accumulation of methionine 14-3-3γ (IEF-immunoblotting)” value (methionine 14-3-3γ [1]; 25 μM bengamide, samples at 8, 16, 24 and 48 hours) was “gradually accumulate over the 48 hour culture period the protein that reacts with the 14-3-3γ specific antibody” and the “expression of the altered 14-3-3γ isoform” value (methionine 14-3-3γ [4]) was “express the altered 14-3-3γ isoform”.
